± gives the standard deviation of the averaged measurements.
These test systems were tested with COCC[n+]1c2c(n(Cc3cnccn3)c1C)C(=O)c1ccccc1C2=O [YM155] (assay: surviving fraction relative to DMSO-only wells; higher = less growth inhibition). Details: 10 nM; exposure time: 5 days.
How it was run: (§1)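 Log-phase tumour cell lines, 250–500 cells per well in 384-well plates, received inhibitors at 0.5, 1, 5, 10, 50, 100, 500 and 1000 nM continuously for five days, starting 24 hours after seeding. Viability was quantified with CellTiter-Glo luminescence and normalised to the median of DMSO-only wells to give surviving fraction. Three screens were run per line, and a line stayed in only with replicate Pearson r >0.7 and median Z' >0.3.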

Going from CME SYNOVIAL to S68 BREAST, the surviving fraction rises from 0.254 ± 0.049 to 0.586 ± 0.038.

Work on HS578T BREAST yielded a surviving fraction of 1.06 ± 0.082.

Same assay, conditions: 50 nM; exposure time: 5 days

Compared with HCC202 BREAST, SCC47 HEADNECK is lower in surviving fraction: 0.411 ± 0.17 for the first, 0.0263 ± 0.0025 for the second.

First: SG28 HEADNECK
Second: CME SYNOVIAL
The surviving fraction of the first is lower: 0.105 ± 0.005 for the first, 0.232 ± 0.023 for the second.

First: S68 BREAST
Second: HS578T BREAST
The surviving fraction of the first is lower: 0.143 ± 0.016 for the first, 0.739 ± 0.18 for the second.

Same assay, conditions: 100 nM; exposure time: 5 days

Compared with HCC202 BREAST, SCC47 HEADNECK is lower in surviving fraction: 0.231 ± 0.037 for the first, 0.021 ± 0.001 for the second.

First: SG28 HEADNECK
Second: CME SYNOVIAL
The surviving fraction of the first is lower: 0.058 ± 0.013 for the first, 0.206 ± 0.0035 for the second.

Compared with S68 BREAST, HS578T BREAST is higher in surviving fraction: 0.0627 ± 0.0061 for the first, 0.809 ± 0.066 for the second.

Same assay, conditions: 500 nM; exposure time: 5 days

Going from HCC202 BREAST to SCC47 HEADNECK, the surviving fraction falls from 0.0315 ± 0.00071 to 0.0197 ± 0.00058.

Compared with SG28 HEADNECK, CME SYNOVIAL is higher in surviving fraction: 0.0285 ± 0.00071 for the first, 0.189 ± 0.0055 for the second.

First: S68 BREAST
Second: HS578T BREAST
The surviving fraction of the first is lower: 0.0267 ± 0.00058 for the first, 0.274 ± 0.067 for the second.

Same assay, conditions: 1000 nM; exposure time: 5 days

Going from HCC202 BREAST to SCC47 HEADNECK, the surviving fraction falls from 0.0335 ± 0.0021 to 0.023 ± 0.001.

Going from SG28 HEADNECK to CME SYNOVIAL, the surviving fraction rises from 0.033 ± 0.0014 to 0.27 ± 0.029.

First: S68 BREAST
Second: HS578T BREAST
The surviving fraction of the first is lower: 0.0277 ± 0.0015 for the first, 0.154 ± 0.027 for the second.

The test systems below were run with Cc1ccc(-c2cc(C(F)(F)F)nn2-c2ccc(S(N)(=O)=O)cc2)cc1 [CELECOXIB] in the same assay as above. Details: 0.5 nM; exposure time: 5 days.
How it was run: as §1

HCC202 BREAST and SCC47 HEADNECK are within error of each other in surviving fraction: 1.15 ± 0.041 for the first, 1.08 ± 0.089 for the second.

SG28 HEADNECK and CME SYNOVIAL are within error of each other in surviving fraction: 1.19 ± 0.26 for the first, 1.4 ± 0.11 for the second.

Going from S68 BREAST to HS578T BREAST, the surviving fraction falls from 1.18 ± 0.21 to 0.9 ± 0.013.

Same assay, conditions: 1 nM; exposure time: 5 days

HCC202 BREAST and SCC47 HEADNECK are within error of each other in surviving fraction: 1.14 ± 0.04 for the first, 1.11 ± 0.092 for the second.

Going from SG28 HEADNECK to CME SYNOVIAL, the surviving fraction rises from 1.19 ± 0.04 to 1.45 ± 0.18.

S68 BREAST and HS578T BREAST are within error of each other in surviving fraction: 1.07 ± 0.24 for the first, 0.892 ± 0.26 for the second.

Same assay, conditions: 5 nM; exposure time: 5 days

HCC202 BREAST and SCC47 HEADNECK are within error of each other in surviving fraction: 1.2 ± 0.33 for the first, 1.09 ± 0.096 for the second.

SG28 HEADNECK and CME SYNOVIAL are within error of each other in surviving fraction: 1.24 ± 0.099 for the first, 1.37 ± 0.076 for the second.

Compared with S68 BREAST, HS578T BREAST is lower in surviving fraction: 1.26 ± 0.17 for the first, 0.942 ± 0.14 for the second.

Same assay, conditions: 10 nM; exposure time: 5 days

HCC202 BREAST and SCC47 HEADNECK are within error of each other in surviving fraction: 1.04 ± 0.09 for the first, 1.12 ± 0.067 for the second.

SG28 HEADNECK and CME SYNOVIAL are within error of each other in surviving fraction: 1.2 ± 0.13 for the first, 1.34 ± 0.079 for the second.

First: S68 BREAST
Second: HS578T BREAST
The surviving fraction of the first is higher: 1.19 ± 0.15 for the first, 0.942 ± 0.093 for the second.

Same assay, conditions: 50 nM; exposure time: 5 days

HCC202 BREAST and SCC47 HEADNECK are within error of each other in surviving fraction: 1.06 ± 0.27 for the first, 1.094 ± 0.0075 for the second.

SG28 HEADNECK and CME SYNOVIAL are within error of each other in surviving fraction: 1.2 ± 0.18 for the first, 1.47 ± 0.23 for the second.

S68 BREAST and HS578T BREAST are within error of each other in surviving fraction: 1 ± 0.29 for the first, 0.923 ± 0.12 for the second.

Same assay, conditions: 100 nM; exposure time: 5 days

HCC202 BREAST gave a surviving fraction of 1.13 ± 0.18.

Source: the supplement of paper PMC6045584
